Results from US9394561B2, “Cyclic peptide production” (National Research Council of Canada, priority 2011, dated 2016).
Entries after “also recorded” stand apart in the source; their conditions may differ. Square brackets hold non-standard residues; d marks the D form. Ends that are not written are not given here.

Key:
[1] = test system: S. vaccaria PCY1; assay: In vitro assay of recombinant S. vaccaria PCY1 with wild type and mutant presegetalin substrates, products detected by LC/MS; format: biochemical, Saponaria vaccaria; design: key to CP (cyclic peptide product detected by LC/MS after in vitro assay) / LP (linear peptide product detected by LC/MS after in vitro assay): +=presence; −=absence; conditions: for cyclic peptide production by S. vaccaria PCY1 (in words) / linear peptide production by S. vaccaria PCY1 (in words): LC/MS and MS/MS; for CP (cyclic peptide product detected by LC/MS after in vitro assay) / LP (linear peptide product detected by LC/MS after in vitro assay): substrates tested for cyclization by S. vaccaria PCY1
Protocol: The gene corresponding to S. vaccaria PCY1 was cloned and expressed in E. coli with a His-tag. HisPur Cobalt Resin™ (Thermo Scientific) was used for purification of recombinant PCY1. The purified PCY1 was quantified using BCA method (Pierce; http://http://www.piercenet.com/) with BSA as a calibration standard. The in vitro assay contained 20 mM Tris buffer (pH 8.5), 100 mM NaCl, 5 mM DTT, 0.2 mg BSA, and 1.5 μg of substrates (wild type and mutant presegetalins, procured from Bio Basic Inc with >90% purity) and was initiated by the addition of 0.3 μg of PCY1, in a total reaction volume of 100 μl. The assay was incubated at 30° C. for up to 1 h and stopped by placing reactions in dry ice. The assays were lyophilized, re-suspended in methanol, evaporated and re-suspended in 50:50 v/v methanol/water for LC/MS analysis.
Ion trap ESI+ LC/MS/MS analysis was used to detect production of cyclic peptides using an Agilent 6320 Ion Trap LC/MS system under default Smart Parameter settings. The analyzer and ion optics were adjusted to achieve proper resolution (Agilent Installation Guide #G2440-90105) using the ESI Tuning Mix (Agilent #G2431A). The mass spectrometer scanned from 50 to 2200 mass units at 8100 mass units sec^−1 with an expected peak width of 0.35 atomic mass units. For auto MS/MS, the trap isolation width was 4 atomic mass units. The associated Agilent 1200 LC was fitted with a Zorbax 300 EXTEND-C18 column (150×2.1 mm, 3.5 μm particle size) maintained at 35° C. The binary solvent system consisted of 90:10 v/v water/acetonitrile containing 0.1% formic acid and 0.1% ammonium formate (solvent A) and 10:90 v/v water/acetonitrile containing 0.1% formic acid and 0.1% ammonium formate (solvent B). The separation gradient was 90:10 A/B to 50:50 A/B in 3 ml over 20 min.
In order to characterize substrate specificity of PCY1 and understand the segetalin A biosynthetic mechanism, a total of 44 substrates (Table 3) were tested for the PCY1 activity and the results are briefly summarized in Table 3. The last two columns in Table 3 summarize product type detected by LC/MS after in vitro assays (CP is cyclic peptide and LP is linear peptide, +=presence, −=absence, NA=not applicable). The 44 substrates were classified as follows: • (A) Presegetalin A1 [14,32], a wild type (WT) precursor of segetalin A • (B) Truncated mutants of presegetalin A1[14,32] • (C) Alanine scanning mutants corresponding to variants of the mature segetalin A sequence • (D) Alanine scanning mutants of the C-terminal region of presegetalin A1[14,32] • (E) D-amino acid mutants corresponding to variants of the mature segetalin A sequence • (F) Insertion mutants corresponding to variants of the mature segetalin A sequence • (G) Other A-class and F-class presegetalins • (H) Putative cyclic peptide precursors from Dianthus caryophyllus

[2] = test system: Dianthus superbus PCY1-c1141; assay: In vitro assay of recombinant Dianthus superbus PCY1-c1141 with presegetalin substrates, LC/MS; format: biochemical
From the text: (§1) To test for activity of the homologues of S. vaccaria PCY1, two cDNAs encoding were cloned from Dianthus superbus (c250 and c1141 contigs) and one from Silene vulgaris (c150 contig) essentially as described for Saponaria vaccaria PCY1 in Example 2. These were named Dianthus superbus Pcy1-c250, Dianthus superbus Pcy1-c1141 and Silene vulgaris Pcy1-c150, Briefly, gene specific forward and reverse primers were used to PCR amplify the aforementioned contigs based on homologue identification in EST collections from Dianthus leaves and Silene roots. The Dianthus superbus (c250 and c1141 contigs) and Silene vulgaris (c150 contig) PCY1 homologues were assayed with 15 μg/mL presegetalin A1[14,32] in vitro as previously described for semi-purified plant extracts to determine whether they can catalyze the production of segetalin A from presegetalin A1[14,32]. The assays were initiated by the addition of 120 ng (c250), or 138 ng (c1141) purified recombinant Dianthus superbus or 4 μg Silene vulgaris Pcy1 respectively, in a total reaction volume of 100 μL. […] Thus, there are additional enzymes in the Caryophyllaceae family, which have the same enzymatic activity as S. vaccaria PCY1.
Seven mutant peptides containing D-amino acids were synthesized (No. 26 to 32 in Table 3) and tested with S. vaccaria PCY1 under optimized in vitro conditions. In initial experiments, each amino acid corresponding to segetalin A was substituted with its D-amino acid consecutively from position 15 to 19 (No. 26 to 30). Glycine at position 14 is achiral and no substitution was required. […] To test this possibility two peptides were synthesized No. 31 and No. 32 in Table 3. […] The cyclic peptides were detected as diagnostic ions (M+H)^+ and (M+Na)^+ in LC/MS and their presence was further confirmed by MS/MS analysis. […] The cyclic peptide produced from No. 32 has alternating D- and L-forms of amino acids (with the exception of the glycine), which gives it the potential to self-assemble into nanotube under appropriate conditions (Gadhiri 1993).

[3] = test system: Dianthus superbus PCY1-c250; assay: In vitro assay of recombinant Dianthus superbus PCY1-c250 with presegetalin substrates, LC/MS; format: biochemical
From the text: as §1
Dianthus superbus PCY1-c250 was also assayed with the alanine scan mutants and the activities were compared with those of S. vaccaria PCY1.

[4] = test system: Silene vulgaris Pcy1-c150; assay: In vitro assay of recombinant Silene vulgaris PCY1-c150 with presegetalin A1[14,32], LC/MS; format: biochemical; conditions: 15 μg/mL presegetalin A1[14,32], 4 μg enzyme
From the text: as §1

Chain of Dianthus superbus PCY1-c1141 (as listed by the source): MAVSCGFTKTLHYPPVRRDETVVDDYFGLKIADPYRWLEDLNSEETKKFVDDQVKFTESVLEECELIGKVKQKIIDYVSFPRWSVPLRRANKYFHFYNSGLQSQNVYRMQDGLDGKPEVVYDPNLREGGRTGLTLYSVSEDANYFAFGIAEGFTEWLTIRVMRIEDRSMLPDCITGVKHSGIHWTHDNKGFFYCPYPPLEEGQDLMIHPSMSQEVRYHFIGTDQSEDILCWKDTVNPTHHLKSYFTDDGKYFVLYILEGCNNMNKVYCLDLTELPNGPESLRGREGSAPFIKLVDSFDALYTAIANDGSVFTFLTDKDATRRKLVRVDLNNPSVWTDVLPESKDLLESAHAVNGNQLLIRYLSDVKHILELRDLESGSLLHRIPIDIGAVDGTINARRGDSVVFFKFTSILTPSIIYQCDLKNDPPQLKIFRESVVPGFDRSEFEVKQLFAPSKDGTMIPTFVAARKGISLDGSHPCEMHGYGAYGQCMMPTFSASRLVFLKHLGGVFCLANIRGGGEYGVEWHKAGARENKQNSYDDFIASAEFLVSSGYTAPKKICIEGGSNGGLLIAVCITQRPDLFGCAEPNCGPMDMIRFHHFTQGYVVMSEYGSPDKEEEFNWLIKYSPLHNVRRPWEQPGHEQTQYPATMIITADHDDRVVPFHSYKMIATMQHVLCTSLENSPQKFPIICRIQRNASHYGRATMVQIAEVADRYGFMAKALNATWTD
Chain of S. vaccaria PCY1 (as listed by the source): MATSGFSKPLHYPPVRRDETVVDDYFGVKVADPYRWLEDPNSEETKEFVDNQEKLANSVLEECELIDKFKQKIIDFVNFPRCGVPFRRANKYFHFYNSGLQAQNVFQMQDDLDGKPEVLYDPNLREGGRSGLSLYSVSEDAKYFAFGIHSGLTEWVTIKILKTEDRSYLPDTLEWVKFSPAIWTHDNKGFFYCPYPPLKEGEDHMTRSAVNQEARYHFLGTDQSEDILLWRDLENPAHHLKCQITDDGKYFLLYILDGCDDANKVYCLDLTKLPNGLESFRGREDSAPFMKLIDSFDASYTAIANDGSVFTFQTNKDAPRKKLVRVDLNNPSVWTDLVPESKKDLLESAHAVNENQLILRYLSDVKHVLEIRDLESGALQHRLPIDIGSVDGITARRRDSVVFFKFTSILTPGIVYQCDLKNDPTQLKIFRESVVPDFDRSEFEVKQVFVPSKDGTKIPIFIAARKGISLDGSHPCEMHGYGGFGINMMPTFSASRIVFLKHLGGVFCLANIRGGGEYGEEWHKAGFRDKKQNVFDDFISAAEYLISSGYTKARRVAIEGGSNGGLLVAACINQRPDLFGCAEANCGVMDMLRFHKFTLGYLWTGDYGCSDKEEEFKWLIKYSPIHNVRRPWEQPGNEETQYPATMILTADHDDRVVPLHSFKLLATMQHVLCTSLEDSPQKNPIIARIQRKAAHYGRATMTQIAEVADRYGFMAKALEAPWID
Chain of Dianthus superbus PCY1-c250 (as listed by the source): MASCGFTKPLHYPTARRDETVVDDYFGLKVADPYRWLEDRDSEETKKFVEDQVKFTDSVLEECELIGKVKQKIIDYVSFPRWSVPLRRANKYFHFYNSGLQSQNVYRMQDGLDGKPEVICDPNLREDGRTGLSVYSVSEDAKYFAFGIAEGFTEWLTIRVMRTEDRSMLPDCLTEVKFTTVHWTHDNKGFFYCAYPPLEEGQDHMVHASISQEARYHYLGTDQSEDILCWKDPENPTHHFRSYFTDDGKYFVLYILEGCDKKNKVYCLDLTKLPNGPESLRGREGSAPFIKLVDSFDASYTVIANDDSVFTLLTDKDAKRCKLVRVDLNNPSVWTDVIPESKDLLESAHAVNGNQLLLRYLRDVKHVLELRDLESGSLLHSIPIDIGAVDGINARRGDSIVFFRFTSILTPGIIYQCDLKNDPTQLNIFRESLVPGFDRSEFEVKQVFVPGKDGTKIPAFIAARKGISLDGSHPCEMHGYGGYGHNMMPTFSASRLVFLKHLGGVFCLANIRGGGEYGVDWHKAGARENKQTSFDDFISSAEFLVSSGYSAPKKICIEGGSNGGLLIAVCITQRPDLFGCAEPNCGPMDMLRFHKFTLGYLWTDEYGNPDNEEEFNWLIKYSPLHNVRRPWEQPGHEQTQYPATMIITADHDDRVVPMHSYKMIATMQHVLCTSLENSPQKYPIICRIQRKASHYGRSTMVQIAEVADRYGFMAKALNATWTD
Chain of Silene vulgaris Pcy1-c150 (as listed by the source): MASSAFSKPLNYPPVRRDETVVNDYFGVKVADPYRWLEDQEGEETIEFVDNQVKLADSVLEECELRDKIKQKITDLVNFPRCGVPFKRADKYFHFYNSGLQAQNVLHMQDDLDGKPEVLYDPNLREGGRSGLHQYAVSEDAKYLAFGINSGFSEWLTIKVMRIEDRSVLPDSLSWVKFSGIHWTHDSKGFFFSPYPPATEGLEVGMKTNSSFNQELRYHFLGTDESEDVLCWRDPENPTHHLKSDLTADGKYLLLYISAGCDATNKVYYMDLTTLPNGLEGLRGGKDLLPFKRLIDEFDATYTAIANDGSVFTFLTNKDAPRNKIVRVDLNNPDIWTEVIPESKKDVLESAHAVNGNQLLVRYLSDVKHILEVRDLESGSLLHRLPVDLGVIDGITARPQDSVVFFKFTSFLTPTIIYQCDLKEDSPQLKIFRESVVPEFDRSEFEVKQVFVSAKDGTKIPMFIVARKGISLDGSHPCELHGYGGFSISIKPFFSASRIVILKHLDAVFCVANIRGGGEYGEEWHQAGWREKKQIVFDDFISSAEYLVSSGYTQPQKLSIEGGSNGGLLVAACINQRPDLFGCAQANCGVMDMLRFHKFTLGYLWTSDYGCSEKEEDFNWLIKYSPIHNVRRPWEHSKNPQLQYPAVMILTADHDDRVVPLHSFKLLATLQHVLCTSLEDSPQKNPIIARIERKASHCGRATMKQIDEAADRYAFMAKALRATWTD

Substance | cyclic peptide production by S. vaccaria PCY1 (in words) [1] | CP (cyclic peptide product detected by LC/MS after in vitro assay) [1] | LP (linear peptide product detected by LC/MS after in vitro assay) [1] | cyclic peptide production by D. superbus PCY1-c1141 (in words) [2] | linear peptide production by S. vaccaria PCY1 (in words) [1] | cyclic peptide production by D. superbus PCY1-c250 (in words) [3] | production of segetalin A by Silene vulgaris c150 polypeptide (in words) [4] | linear peptide production by D. superbus PCY1-c250 (in words) [3]
32 (GV[dP]V[dA]AFQAKDVENASAPV) [compound 32] | made cyclic peptides | + | − | made cyclic peptides; also recorded: relatively more active; also recorded: higher than the activity of S. vaccaria PCY1 |  |  |  | 
31 (GV[dP]VAAFQAKDVENASAPV) [compound 31] | made cyclic peptides | + | − | made cyclic peptides |  |  |  | 
Presegetalin A1[14,32] (GVPVWAFQAKDVENASAPV; listed as Saponaria vaccaria) [No. 1] | showed the formation of segetalin A |  |  | strong enzymatic activity | linear segetalin A | strong enzymatic activity | weaker than that of S. vaccaria PCY1 | 
11 (GVPVAAFQAKDVENASAPV; Presegetalin A1[14,32] variant aa18 = alanine) [compound 11] |  | + | − |  |  | relatively more cyclic peptide than did S. vaccaria PCY1 |  | 
34 (GVPAAAVWAFQAKDVENASAPV; Presegetalin A1[14,32] ins 16AAA17) [compound 34] | produced the expected 9 amino acid cyclic peptide | + | + |  | linear peptide products |  |  | 
7 (AVPVWAFQAKDVENASAPV; Presegetalin A1[14,32] variant aa14 = alanine) [compound 7] | less product | + | + |  | highest amount of linear peptide product | no detectable cyclic peptide |  | a large amount of linear peptide was detected
25 (GVPVWAFQAKDVENASAPA; Presegetalin A1[14,32] V32A) [compound 25] |  | + | + |  |  |  |  | 
27 (GV[dP]VWAFQAKDVENASAPV) [compound 27] |  | + | − |  |  |  |  | 
10 (GVPAWAFQAKDVENASAPV; Presegetalin A1[14,32] variant aa17 = alanine) [compound 10] |  | + | + |  |  |  |  | 
17 (GVPVWAFQAKAVENASAPV; Presegetalin A1[14,32] D24A) [compound 17] | sensitive | + | + |  |  |  |  | 
30 (GVPVW[dA]FQAKDVENASAPV) [compound 30] | neither cyclic peptide nor linear peptide were detected | − | − |  | neither cyclic peptide nor linear peptide were detected |  |  | 
12 (GVPVWVFQAKDVENASAPV; Presegetalin A1[14,32] variant aa19 = valine) [compound 12] | neither cyclic peptide nor linear peptide was detected | − | − |  | neither cyclic peptide nor linear peptide was detected |  |  | 
35 (GVAWAFQAKDVENASAPV; Presegetalin B1[14,31]) [compound 35] | cyclic peptide products were detected from all of them | + | − |  |  |  |  | 
36 (GLSFAFPAKDAENASSPV; Presegetalin D1[14,31]) [compound 36] | cyclic peptide products were detected from all of them | + | + |  |  |  |  | 
